In PMC8954523 (Pharmaceutics, 2022):

Test: Dissolution and solvation thermodynamic functions (van't Hoff; solubility minus sublimation)
Assay type: physicochemical
Protocol: The dissolution thermodynamic parameters on the standard state were determined using mole fraction unitary units. […] Since the resulting solutions are very dilute, and their densities are very close to those of the pure solvents. The density values of the pure solvents were used in calculations (Table S1). […] The temperature dependences of the experimental solubility were treated mathematically by the van't Hoff equation, and the apparent solution enthalpies ΔHsol0 were determined as follows:(3) ∂(lnX2)/∂T=ΔHsol0/RT^2 […] Next, the apparent solution entropies ΔSsol0 were derived by the equation:(5) ΔGsol0=ΔHso[…] The solvation of one mole of the solute molecules in the solvent can be defined as the total change of the standard thermodynamic functions ( ΔGsolv0 , ΔHsolv0 , ΔSsolv0 ) of the compound upon transferring it from the gaseous phase (ideal gas; single molecules without interaction) into the solvent. The transfer process can be presented as the difference between the dissolution and sublimation thermodynamic functions by:(6) ΔYsolv0=ΔYso[…] where ΔY^0 is the standard change of any of the thermodynamic functions (ΔG^0, ΔH^0, ΔS^0) of solvation ( ΔYsolv0 ), dissolution ( ΔYsol0 ) or sublimation ( ΔYsubo ).

[1] = Table S6, n-hexane, all studied temperatures
[2] = Table S6, water, all studied temperatures

**Q.** For CC(O)(CS(=O)(=O)c1ccc(F)cc1)C(=O)Nc1ccc(C#N)c(C(F)(F)F)c1 (stereo not shown) [BCL, bicalutamide], which ζTSsolv (Table S6, n-hexane, 293.15 K) is on record?
**A.** The ζTSsolv was 37.96%.

**Q.** And the TΔSsol0 (Table S6, n-hexane, 298.15 K)?
**A.** The TΔSsol0 was 3.59 kcal/mol.

**Q.** What about the ΔGsol0 (Table S6, n-hexane, 298.15 K) of the same compound?
**A.** Its ΔGsol0 is 8.174 kcal/mol.

**Q.** And the ΔSsol0 (Table S6, n-hexane, 298.15 K)?
**A.** The ΔSsol0 was 50.70 J∙mol-1·K-1.

**Q.** What about the ζHsolv (Table S6, n-hexane, 298.15 K) of the same compound?
**A.** The ζHsolv was 62.20%.

**Q.** What about the “−TΔSsolv0” value (Table S6, n-hexane, 298.15 K) of the same compound?
**A.** Its value is 10.97 kcal/mol.

**Q.** What about the “−ΔSsolv0” value (Table S6, n-hexane, 298.15 K) of the same compound?
**A.** The value was 153.88 J∙mol-1·K-1.

**Q.** What about the TΔSsol0 (Table S6, n-hexane, 303.15 K) of the same compound?
**A.** The TΔSsol0 was 3.681 kcal/mol.

**Q.** And the ΔGsol0 (Table S6, n-hexane, 303.15 K)?
**A.** The ΔGsol0 was 8.078 kcal/mol.

**Q.** What about the ΔSsol0 (Table S6, n-hexane, 303.15 K) of the same compound?
**A.** The ΔSsol0 was 50.81 J∙mol-1·K-1.

**Q.** And the ζTSsolv (Table S6, n-hexane, 303.15 K)?
**A.** The ζTSsolv was 37.65%.

**Q.** What about the “−ΔSsolv0” value (Table S6, n-hexane, 303.15 K) of the same compound?
**A.** Its value is 150.42 J∙mol-1·K-1.

**Q.** And the TΔSsol0 (Table S6, n-hexane, 308.15 K)?
**A.** Its TΔSsol0 is 3.738 kcal/mol.

**Q.** And the ΔGsol0 (Table S6, n-hexane, 308.15 K)?
**A.** The ΔGsol0 was 8.021 kcal/mol.

**Q.** What about the ΔSsol0 (Table S6, n-hexane, 308.15 K) of the same compound?
**A.** Its ΔSsol0 is 50.75 J∙mol-1·K-1.

**Q.** And the ζTSsolv (Table S6, n-hexane, 308.15 K)?
**A.** Its ζTSsolv is 37.53%.

**Q.** And the “−TΔSsolv0” value (Table S6, n-hexane, 308.15 K)?
**A.** Its value is 10.84 kcal/mol.

**Q.** What about the “−ΔGsolv0” value (Table S6, n-hexane, 308.15 K) of the same compound?
**A.** The value was 7.204 kcal/mol.

**Q.** And the “−ΔSsolv0” value (Table S6, n-hexane, 308.15 K)?
**A.** Its value is 147.20 J∙mol-1·K-1.

**Q.** What about the TΔSsol0 (Table S6, n-hexane, 313.15 K) of the same compound?
**A.** The TΔSsol0 was 3.793 kcal/mol.

**Q.** And the ΔGsol0 (Table S6, n-hexane, 313.15 K)?
**A.** Its ΔGsol0 is 7.966 kcal/mol.

**Q.** What about the ζTSsolv (Table S6, n-hexane, 313.15 K) of the same compound?
**A.** The ζTSsolv was 37.41%.

**Q.** What about the “−TΔSsolv0” value (Table S6, n-hexane, 313.15 K) of the same compound?
**A.** The value was 10.79 kcal/mol.

**Q.** What about the “−ΔGsolv0” value (Table S6, n-hexane, 313.15 K) of the same compound?
**A.** Its value is 7.259 kcal/mol.

**Q.** And the TΔSsol0 (Table S6, n-hexane, 318.15 K)?
**A.** Its TΔSsol0 is 3.841 kcal/mol.

**Q.** What about the ΔGsol0 (Table S6, n-hexane, 318.15 K) of the same compound?
**A.** Its ΔGsol0 is 7.918 kcal/mol.

**Q.** What about the ΔSsol0 (Table S6, n-hexane, 318.15 K) of the same compound?
**A.** The ΔSsol0 was 50.50 J∙mol-1·K-1.

**Q.** What about the ζHsolv (Table S6, n-hexane, 318.15 K) of the same compound?
**A.** Its ζHsolv is 62.69%.

**Q.** What about the “−TΔSsolv0” value (Table S6, n-hexane, 318.15 K) of the same compound?
**A.** Its value is 10.74 kcal/mol.

**Q.** What about the “−ΔGsolv0” value (Table S6, n-hexane, 318.15 K) of the same compound?
**A.** Its value is 7.306 kcal/mol.

**Q.** What about the “−ΔSsolv0” value (Table S6, n-hexane, 318.15 K) of the same compound?
**A.** The value was 141.22 J∙mol-1·K-1.

**Q.** What about the ΔHsol0 [1] of the same compound?
**A.** The ΔHsol0 was 11.8 kcal/mol.

**Q.** And the “−ΔHsolv0” value [1]?
**A.** The value was 18 kcal/mol.

**Q.** And the ζHsolv (Table S6, water, 293.15 K)?
**A.** Its ζHsolv is 58.17%.

**Q.** And the ζHsolv (Table S6, water, 298.15 K)?
**A.** The ζHsolv was 58.17%.

**Q.** What about the “−ΔSsolv0” value (Table S6, water, 298.15 K) of the same compound?
**A.** Its value is 211.97 J∙mol-1·K-1.

**Q.** What about the ζHsolv (Table S6, water, 303.15 K) of the same compound?
**A.** The ζHsolv was 58.17%.

**Q.** What about the ζHsolv (Table S6, water, 308.15 K) of the same compound?
**A.** Its ζHsolv is 58.13%.

**Q.** And the “−TΔSsolv0” value (Table S6, water, 308.15 K)?
**A.** Its value is 15.13 kcal/mol.

**Q.** And the “−ΔGsolv0” value (Table S6, water, 308.15 K)?
**A.** The value was 5.877 kcal/mol.

**Q.** And the “−ΔSsolv0” value (Table S6, water, 308.15 K)?
**A.** The value was 205.45 J∙mol-1·K-1.

**Q.** And the ζHsolv (Table S6, water, 313.15 K)?
**A.** Its ζHsolv is 58.12%.

**Q.** What about the “−TΔSsolv0” value (Table S6, water, 313.15 K) of the same compound?
**A.** Its value is 15.14 kcal/mol.

**Q.** What about the “−ΔGsolv0” value (Table S6, water, 313.15 K) of the same compound?
**A.** Its value is 5.872 kcal/mol.

**Q.** What about the ΔHsol0 [2] of the same compound?
**A.** Its ΔHsol0 is 8.8 kcal/mol.

**Q.** What about the “−ΔHsolv0” value [2] of the same compound?
**A.** The value was 21 kcal/mol.

**Q.** And the TΔSsol0 (ethanol, 298.15 K)?
**A.** Its TΔSsol0 is 3.04 kcal/mol.

**Q.** And the ΔGsol0 (ethanol, 298.15 K)?
**A.** The ΔGsol0 was 3.87 kcal/mol.

**Q.** What about the ΔHsol0 (ethanol, 298.15 K) of the same compound?
**A.** The ΔHsol0 was 6.91 ± 0.22 kcal/mol.

**Q.** And the ΔSsol0 (ethanol, 298.15 K)?
**A.** The ΔSsol0 was 42.6 ± 5.1 J∙mol^−1·K^−1.

**Q.** What about the ζHsolv (ethanol, 298.15 K) of the same compound?
**A.** Its ζHsolv is 66.5%.

**Q.** What about the ζTSsolv (ethanol, 298.15 K) of the same compound?
**A.** Its ζTSsolv is 33.5%.

**Q.** And the “−TΔSsolv0” value (ethanol, 298.15 K)?
**A.** Its value is 11.5 kcal/mol.

**Q.** What about the “−ΔGsolv0” value (ethanol, 298.15 K) of the same compound?
**A.** Its value is 11.4 kcal/mol.

**Q.** What about the “−ΔHsolv0” value (ethanol, 298.15 K) of the same compound?
**A.** The value was 22.9 kcal/mol.

**Q.** And the “−ΔSsolv0” value (ethanol, 298.15 K)?
**A.** Its value is 162.0 J∙mol^−1·K^−1.

**Q.** And the TΔSsol0 (n-hexane, 298.15 K)?
**A.** Its TΔSsol0 is 3.59 kcal/mol.

**Q.** What about the ΔGsol0 (n-hexane, 298.15 K) of the same compound?
**A.** The ΔGsol0 was 8.17 kcal/mol.

**Q.** What about the ΔHsol0 (n-hexane, 298.15 K) of the same compound?
**A.** Its ΔHsol0 is 11.8 ± 0.17 kcal/mol.

**Q.** What about the ΔSsol0 (n-hexane, 298.15 K) of the same compound?
**A.** Its ΔSsol0 is 50.3 ± 3.4 J∙mol^−1·K^−1.

**Q.** What about the ζHsolv (n-hexane, 298.15 K) of the same compound?
**A.** The ζHsolv was 62.1%.

**Q.** What about the ζTSsolv (n-hexane, 298.15 K) of the same compound?
**A.** Its ζTSsolv is 37.9%.

**Q.** What about the “−TΔSsolv0” value (n-hexane, 298.15 K) of the same compound?
**A.** Its value is 11 kcal/mol.

**Q.** And the “−ΔGsolv0” value (n-hexane, 298.15 K)?
**A.** Its value is 7.05 kcal/mol.

**Q.** What about the “−ΔHsolv0” value (n-hexane, 298.15 K) of the same compound?
**A.** Its value is 18 kcal/mol.

**Q.** And the “−ΔSsolv0” value (n-hexane, 298.15 K)?
**A.** Its value is 154.3 J∙mol^−1·K^−1.

**Q.** What about the TΔSsol0 (water, 298.15 K) of the same compound?
**A.** The TΔSsol0 was -0.526 kcal/mol.

**Q.** And the ΔGsol0 (water, 298.15 K)?
**A.** The ΔGsol0 was 9.32 kcal/mol.

**Q.** What about the ΔHsol0 (water, 298.15 K) of the same compound?
**A.** The ΔHsol0 was 8.8 ± 0.14 kcal/mol.

**Q.** What about the ΔSsol0 (water, 298.15 K) of the same compound?
**A.** Its ΔSsol0 is −7.4 ± 0.3 J∙mol^−1·K^−1.

**Q.** And the ζHsolv (water, 298.15 K)?
**A.** The ζHsolv was 58.2%.

**Q.** What about the ζTSsolv (water, 298.15 K) of the same compound?
**A.** The ζTSsolv was 41.8%.

**Q.** And the “−TΔSsolv0” value (water, 298.15 K)?
**A.** Its value is 15.1 kcal/mol.

**Q.** What about the “−ΔGsolv0” value (water, 298.15 K) of the same compound?
**A.** Its value is 5.9 kcal/mol.

**Q.** And the “−ΔHsolv0” value (water, 298.15 K)?
**A.** The value was 21 kcal/mol.

**Q.** What about the “−ΔSsolv0” value (water, 298.15 K) of the same compound?
**A.** Its value is 212.0 J∙mol^−1·K^−1.
